Key:
[1] = test system: bedstraw; assay: Test B pre/postemergence bedstraw; type: in vivo, Galium aparine
How it was run: (§1)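 Herbicidal effect was estimated by eye on a ten-point control scale after plants spent twelve to sixteen days in a greenhouse following soil or foliar treatment. Foliar sprays targeted plants at one to four leaves; all doses were formulated in a non-phytotoxic solvent with surfactant.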

[2] = test system: blackgrass; assay: Test B pre/postemergence blackgrass; type: in vivo, Alopecurus myosuroides
How it was run: as §1

[3] = test system: surinam grass; assay: Test B pre/postemergence surinam grass; type: in vivo, Brachiaria decumbens
How it was run: as §1

[4] = test system: corn; assay: Test B pre/postemergence corn; type: in vivo, Zea mays
How it was run: as §1

[5] = test system: crabgrass; assay: Test B pre/postemergence crabgrass; type: in vivo, Digitaria sanguinalis
How it was run: as §1

[6] = test system: pigweed; assay: Test B pre/postemergence pigweed; type: in vivo, Amaranthus retroflexus
How it was run: as §1

[7] = test system: rape; assay: Test B pre/postemergence rape; type: in vivo, Brassica napus
How it was run: as §1

[8] = test system: soybean; assay: Test B pre/postemergence soybean; type: in vivo, Glycine max
How it was run: as §1

[9] = test system: sugar beet; assay: Test B pre/postemergence sugar beet; type: in vivo, Beta vulgaris; details: for Plant response rating, Sugarbeets: Rate 250 g/ha
How it was run: as §1

[10] = test system: velvetleaf; assay: Test B pre/postemergence velvetleaf; type: in vivo, Abutilon theophrasti; details: for Plant response rating, Velvetleaf: Rate 250 g/ha
How it was run: as §1

[11] = test system: wheat; assay: Test B pre/postemergence wheat; type: in vivo, Triticum aestivum; details: for Plant response rating, Wheat: Rate 250 g/ha
How it was run: as §1

[12] = test system: wild oat; assay: Test B pre/postemergence wild oat; type: in vivo, Avena fatua; details: for Plant response rating, Wild oats: Rate 250 g/ha
How it was run: as §1

[13] = test system: purple nutsedge; assay: Test B pre/postemergence purple nutsedge; type: in vivo, Cyperus rotundus
How it was run: as §1

[14] = test system: rice; assay: Test B flood test rice; type: in vivo, Oryza sativa
How it was run: (§2)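 Flood test on plants grown to the 2-leaf stage; treated plants kept in greenhouse twelve to sixteen days, then visually rated against controls on a 0 (no effect) to 10 (complete control) scale.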

[15] = test system: smallflower flatsedge; assay: Test B flood test smallflower flatsedge; type: in vivo, Cyperus difformis
How it was run: as §2

[16] = test system: duck salad; assay: Test B flood test duck salad; type: in vivo, Heteranthera limosa
How it was run: as §2

[17] = Preemergence, Rate 62 g/ha, scale 0 to 10 (0 no effect, 10 complete control)
[18] = Preemergence, Rate 125 g/ha, scale 0 to 10 (0 no effect, 10 complete control)
[19] = Preemergence, Rate 250 g/ha, scale of 0 to 10 where 0 is no effect and 10 is complete control
[20] = Preemergence, Rate 500 g/ha, scale 0 (no effect) to 10 (complete control)
[21] = Rate 500 g/ha, Postemergence, scale 0 to 10, 0 no effect, 10 complete control
[22] = Postemergence, Rate 125 g/ha, scale of 0 to 10 where 0 is no effect and 10 is complete control
[23] = Postemergence, Rate 250 g/ha, scale 0 to 10, 0 no effect, 10 complete control
[24] = Rate 62 g/ha, Postemergence, scale of 0 to 10 where 0 is no effect and 10 is complete control
[25] = Rate 250 g/ha, Postemergence, scale 0 to 10, 0 is no effect, 10 is complete control
[26] = Preemergence, Rate 125 g/ha, 0 is no effect, 10 is complete control
[27] = Preemergence, scale of 0 to 10 where 0 is no effect and 10 is complete control
[28] = Postemergence, scale 0 to 10, 0 is no effect, 10 is complete control
[29] = Postemergence (flood test species), Rate 125 g/ha, scale of 0 to 10 where 0 is no effect and 10 is complete control
[30] = Rate 62 g/ha, Postemergence section, flood test species, scale of 0 to 10 where 0 is no effect and 10 is complete control
[31] = Rate 250 g/ha, Postemergence (flood test), scale 0 to 10, 0 is no effect, 10 is complete control
[32] = Rate 500 g/ha, listed under Postemergence (flood test species), scale 0 to 10, 0 no effect, 10 complete control

## CCc1noc(C)c1-n1c(=O)on(C(=O)N(c2ccc(F)cc2)C(C)C)c1=O [Compound 101]
[1]; [17]
  Bedstraw plant response rating: 0
[1]; [18]
  Plant response rating, Bedstraw: 0
[1]; [19]
  Plant response rating, Bedstraw: 0
[1]; [20]
  Bedstraw plant response rating: 0
[1]; [21]
  Bedstraw plant response rating: 0
[2]; [22]
  Blackgrass plant response rating: 0
[2]; [23]
  Blackgrass plant response rating: 0
[2]; [17]
  Blackgrass plant response rating: 0
[2]; [18]
  Plant response rating, Blackgrass: 0
[2]; [19]
  Plant response rating, Blackgrass: 0
[2]; [20]
  Blackgrass plant response rating: 0
[2]; [24]
  Blackgrass plant response rating: 0
[2]; [21]
  Blackgrass plant response rating: 0
[3]; Postemergence, Rate 62 g/ha, scale 0 to 10, 0 is no effect, 10 is complete control
  B. signalgrass plant response rating: 0
[3]; [23]
  B. signalgrass plant response rating: 0
[3]; [17]
  B. signalgrass plant response rating: 0
[3]; [18]
  Plant response rating, B. signalgrass: 0
[3]; [19]
  Plant response rating, B. signalgrass: 0
[3]; [20]
  B. signalgrass plant response rating: 0
[3]; Rate 125 g/ha, Postemergence, scale 0 to 10, 0 no effect, 10 complete control
  B. signalgrass plant response rating: 0
[3]; Rate 500 g/ha, Postemergence, scale of 0 to 10 where 0 is no effect and 10 is complete control
  B. signalgrass plant response rating: 0
[4]; [22]
  Corn plant response rating: 0
[4]; [23]
  Corn plant response rating: 0
[4]; [17]
  Corn plant response rating: 0
[4]; [18]
  Plant response rating, Corn: 0
[4]; [19]
  Plant response rating, Corn: 0
[4]; [20]
  Corn plant response rating: 0
[4]; [24]
  Corn plant response rating: 0
[4]; [21]
  Corn plant response rating: 0
[5]; [22]
  Crabgrass plant response rating: 0
[5]; [23]
  Crabgrass plant response rating: 0
[5]; [17]
  Crabgrass plant response rating: 0
[5]; [18]
  Plant response rating, Crabgrass: 0
[5]; [19]
  Plant response rating, Crabgrass: 0
[5]; [20]
  Crabgrass plant response rating: 0
[5]; [24]
  Crabgrass plant response rating: 0
[5]; [21]
  Crabgrass plant response rating: 0
[6]; [22]
  Redroot pigweed plant response rating: 0
[6]; [17]
  Redroot pigweed plant response rating: 0
[6]; [18]
  Plant response rating, Redroot pigweed: 0
[6]; [19]
  Plant response rating, Redroot pigweed: 0
[6]; [20]
  Redroot pigweed plant response rating: 0
[6]; [24]
  Redroot pigweed plant response rating: 0
[6]; [25]
  Plant response rating, Redroot pigweed: 0
[6]; [21]
  Redroot pigweed plant response rating: 0
[7]; [22]
  Rape plant response rating: 0
[7]; [23]
  Rape plant response rating: 0
[7]; [17]
  Rape plant response rating: 0
[7]; [18]
  Plant response rating, Rape: 0
[7]; [19]
  Plant response rating, Rape: 0
[7]; [20]
  Rape plant response rating: 0
[7]; [24]
  Rape plant response rating: 0
[7]; [21]
  Rape plant response rating: 0
[8]; [22]
  Soybean plant response rating: 2
[8]; [17]
  Soybean plant response rating: 0
[8]; [18]
  Plant response rating, Soybean: 0
[8]; [19]
  Plant response rating, Soybean: 0
[8]; [20]
  Soybean plant response rating: 0
[8]; [24]
  Soybean plant response rating: 2
[8]; [25]
  Plant response rating, Soybean: 3
[8]; [21]
  Soybean plant response rating: 3
[9]; [22]
  Sugarbeets plant response rating: 0
[9]; [17]
  Sugarbeets plant response rating: 0
[9]; [26]
  Sugarbeets plant response rating (0 to 10 scale): 0
[9]; [27]
  Plant response rating, Sugarbeets: 0
[9]; [20]
  Sugarbeets plant response rating: 0
[9]; [24]
  Sugarbeets plant response rating: 0
[9]; [28]
  Plant response rating, Sugarbeets: 0
[9]; [21]
  Sugarbeets plant response rating: 0
[10]; [22]
  Velvetleaf plant response rating: 0
[10]; [17]
  Velvetleaf plant response rating: 0
[10]; [26]
  Velvetleaf plant response rating (0 to 10 scale): 0
[10]; [27]
  Plant response rating, Velvetleaf: 0
[10]; [20]
  Velvetleaf plant response rating: 0
[10]; [24]
  Velvetleaf plant response rating: 0
[10]; [28]
  Plant response rating, Velvetleaf: 0
[10]; [21]
  Velvetleaf plant response rating: 0
[11]; [22]
  Wheat plant response rating: 0
[11]; [17]
  Wheat plant response rating: 0
[11]; [26]
  Wheat plant response rating (0 to 10 scale): 0
[11]; [27]
  Plant response rating, Wheat: 0
[11]; [20]
  Wheat plant response rating: 0
[11]; [24]
  Wheat plant response rating: 0
[11]; [28]
  Plant response rating, Wheat: 0
[11]; [21]
  Wheat plant response rating: 0
[12]; [22]
  Wild oats plant response rating: 0
[12]; [17]
  Wild oats plant response rating: 0
[12]; [26]
  Wild oats plant response rating (0 to 10 scale): 0
[12]; [27]
  Plant response rating, Wild oats: 0
[12]; [20]
  Wild oats plant response rating: 0
[12]; [24]
  Wild oats plant response rating: 0
[12]; [28]
  Plant response rating, Wild oats: 0
[12]; [21]
  Wild oats plant response rating: 0
[13]; [22]
  Nutsedge plant response rating: 0
[13]; [23]
  Nutsedge plant response rating: 0
[13]; [17]
  Nutsedge plant response rating: 0
[13]; [18]
  Plant response rating, Nutsedge: 0
[13]; [19]
  Plant response rating, Nutsedge: 0
[13]; [20]
  Nutsedge plant response rating: 0
[13]; [24]
  Nutsedge plant response rating: 0
[13]; [21]
  Nutsedge plant response rating: 0
[14]; [29]
  Rice plant response rating: 0
[14]; [30]
  Rice plant response rating: 0
[14]; [31]
  Plant response rating, Rice: 0
[14]; [32]
  Rice plant response rating: 0
[15]; [29]
  S. Flatsedge plant response rating: 0
[15]; [30]
  S. Flatsedge plant response rating: 0
[15]; [31]
  Plant response rating, S. Flatsedge: 0
[15]; [32]
  S. Flatsedge plant response rating: 0
[16]; [29]
  Ducksalad plant response rating: 0
[16]; [30]
  Ducksalad plant response rating: 0
[16]; [32]
  Ducksalad plant response rating: 0
[16]; flood test, listed under Postemergence, Rate 250 g/ha, scale 0 to 10, 0 no effect, 10 complete control
  Ducksalad plant response rating: 0

From US6737383B1, “Herbicidal oxadiazolidines” (priority 1999, dated 2004)
